From patent publication US11963964B2, “Small molecules for mouse satellite cell proliferation” (President and Fellows of Harvard College, priority 2011, dated 2024)
Entries after “also recorded” stand apart in the source; their conditions may differ.

Columns and labels:
[1] = tested on: satellite cells (SMPs); assay: Satellite cell (SMP) proliferation with or without bFGF, 300 cells/well; assay type: cell-based, mouse; details: for additive or synergistic action with bFGF: compound plus bFGF versus bFGF alone (FIGS. 15-17, 28, 29)
[2] = tested on: primary fibroblasts; assay: Specificity test on Sca1-positive fibroblasts (Ki67); assay type: cell-based, mouse; details: primary fibroblasts (FIG. 23)
[3] = tested on: satellite cells; assay: Satellite cell proliferation screen and dose response, image-based cell count; design: species or system mouse; details: for activity on in vitro satellite cell proliferation (in words): screen hits tested in dose response / retest
[4] = tested on: satellite cells from aged and young tissue; assay: Proliferation of satellite cells from aged and young mice; assay type: cell-based, mouse; details: aged cells as well as young cells (FIGS. 24, 25)
[5] = tested on: satellite cells from Tg:Pax7-nGFP mice; assay: LINCS library screen for satellite cell proliferation (Hoechst 33342 high content imaging); assay type: cell-based, mouse; details: satellite cells cultured for 4 days, 96w plates
Source text: This example includes a list of primary hits from a screen designed to identify compounds that promote satellite cell proliferation in vitro. The satellite cell is a skeletal muscle stem cell responsible for post-natal muscle growth and regeneration. […] The four compound libraries tested, LINCS 1, 2, 3 and 4, were provided to us by the Sorger lab at Harvard Medical School. The Sorger lab is a member of the LINCS (Library of Integrated Network-Based Cellular Signatures) Consortium, which is an NIH initiative aiming to generate public data to further research of therapeutically relevant cellular pathways. LINCS 1, 2, and 4 contain kinase inhibitors, while LINCS 3 contains epigenetic modifiers.
FIG. 50 identifies small molecules that promote satellite cell proliferation screen in this Example. (A) Chemical screen experimental schematic outlining FACS isolation and compound library treatment of satellite cells. (B) Representative dose response curves from four of the top ten compounds. Top ten compounds were chosen based on highest fold change of cell proliferation relative to vehicle controls. Proliferation was assessed via high content imaging using Hoechst 33342 as a cell marker. (C) Representative fluorescent images of FACS sorted satellite cells from Tg:Pax7-nGFP mice on 96w plates cultured for 4 days and treated with vehicle, compound or positive control (Jak3 inhibitor 6). Optimal treatment concentration for each compound was determined in dose response; 3 uM for XMD8-92, 5 uM for SB23906, 800 nM for XMD11-50, and 400 nM for Vorinostat. Hoechst 33342 was used as a cell marker. Scale bars denote 100 um. (D) Fold change relative to vehicle control for several compounds that promote satellite cell expansion.
Satellite cells were isolated from intact limb muscle and prepared for fluorescence activated cell sorting (FACS) as described previously (Rocheteau et al., 2012). FACS was performed at Harvard University at the Bauer Flow Cytometry Core Facility on a Beckman Coulter MoFlo Legacy (Beckman Coulter). Satellite cells were sorted into Eppendorf tubes, and plated onto 96 well plates by hand (Greiner). Plates were pre-coated at 37° C. for 4 hours with […] laminin diluted in PBS. Sorted cells were cultured in StemSpan SFEM II basal medium (Stem Cell Technologies) supplemented with 0.05 ng/mL basic fibroblast growth factor (bFGF, Life Technologies). Wells for the positive control were treated with 600 nM Jak3 inhibitor IV (EMD Millipore). For screening and dose response follow up, cells were plated at 150 cells/well.
The day cells were plated was considered Day 0. Compounds were added on Day 1. For screening and dose response follow up, cells were incubated without media change until Day 4 and plates were prepared for imaging. […]

[6] = tested on: satellite cells (SMPs); assay: Differentiation of compound-treated SMPs into myotubes (myosin heavy chain staining); assay type: cell-based, mouse; details: compound in proliferation conditions, then differentiation media
Method: CAG-EGFP satellite cells were grown in the inventors' standard proliferation conditions and exposed to compounds for four days. Under the inventors' standard proliferation conditions cells were cultured on laminin-coated plates in Ham's F-10 medium supplemented with 10% heat inactivated horse serum, 100Units/mL penicillin/100 ug/mL streptomycin, and 2 mM L-glutamine. Compounds were added the day after plating. The compounds and media were either refreshed daily or after three days. To differentiate cells and form myotubes, after four days in proliferation conditions, media was switched to high-glucose DMEM supplemented with 10% heat inactivated horse serum, 10% fetal bovine serum, 0.5% chick embryo extract, 100Units/mL penicillin/100 ug/mL streptomycin, and 2 mM L-glutamine. Cultures were grown in differentiation media for 3-5 days until myotube formation was observed, then fixed. Cultures were then switched into differentiation media and cultured another four days. They were then fixed and stained with anti-myosin heavy chain (red channel) and Hoechst (blue channel).
For these experiments, 300 cells were plated in each well at Day 0 in our standard proliferation media (10% horse serum in F-10). […]
The inventors also assessed effects these compounds were having on the identity of the satellite cells and their ability to differentiate in culture. […]

[7] = tested on: satellite cells; assay: Satellite cell proliferation in combination with TGF-beta inhibitor (Alk5 inhibitor II); assay type: cell-based, mouse
[8] = tested on: myoblasts; assay: Myoblast differentiation in differentiation media (5% horse serum); assay type: cell-based; details: differentiation media comprising 5% horse serum (FIG. 39)
[9] = tested on: human satellite cells; assay: Expansion of human satellite cells; assay type: cell-based

C[C@]12O[C@H](C[C@]1(O)CO)n1c3ccccc3c3c4c(c5c6ccccc6n2c5c31)CNC4=O [CEP701, Lestaurtinib]
increase in proliferation, CEP701 and bFGF together ([1]; 0.05 μM CEP701 + 5 ng/mL bFGF daily, 300 cells/well, fixed four days after plating (FIG. 14)): 8 fold | effect on fibroblast proliferation [2]: no effect | proliferation of the input SMP cells (level) ([3]; retest, DMSO-treated cells 1±0.3 in both trials): ~4.7±1.4 | optimum concentration [4]: 50 nM

COc1nccc(-c2c(-c3ccc(F)cc3)ncn2C2CCC(O)CC2)n1 (stereo not shown) [SB23906]
optimal treatment concentration determined in dose response [5]: 5 µM

bFGF: basic fibroblast growth factor, positive control
increase in the cell number, bFGF alone ([1]; FIG. 28): six-fold | ability of treated cells to differentiate and fuse to form myotubes [6]: able to form large myotubes | number of cells per well at the end of the assay ([3]; 50 cells/well plated, Day 4, DMSO-treated wells around 50 cells): 150-250 cells | level of proliferation, fold change over the DMSO vehicle control ([3]; FIG. 3A, positive control, DMSO 1±0.3): 3.4±0.9 fold change | level of proliferation, fold change over the DMSO vehicle control (normalized value) ([3]; FIG. 3B, re-supplied compounds dose response, 50 cells/well, positive control, DMSO 1±0.4): 5.6±1.7 fold change

OC[C@H]1O[C@@H](n2cnc3c(NC4CCCC4)ncnc32)[C@H](O)[C@@H]1O [N6-cyclopentyladenosine]
increase in the cell number, combination of CPA and bFGF ([1]; CPA 30 μM + bFGF (FIG. 28)): fifteen-fold | additive or synergistic action with bFGF [1]: seen to synergize with bFGF | additive effect with TGF-beta inhibitor (Alk5 inhibitor II) ([7]; compound plus Alk5 inhibitor II (FIGS. 21, 32)): slight increase in proliferation | myoblast differentiation [8]: drive myoblast differentiation | ability of treated cells to differentiate and fuse to form myotubes [6]: able to form myotubes | activity on in vitro satellite cell proliferation (in words) [3]: identified and validated; also recorded: increase in vitro satellite cell proliferation | activity on in vitro satellite cell proliferation (in words) ([3]; listed as CPA): proliferation levels much greater than that seen in the negative control

N#C/C(=C\c1ccc(O)c(O)c1)C(=O)NCc1ccccc1 [Tyr AG490]
myoblast differentiation [8]: drive myoblast differentiation

CC(C)(C)c1cc(NC(=O)Nc2ccc(-c3cn4c(n3)sc3cc(OCCN5CCOCC5)ccc34)cc2)no1 [AC220, quizartinib]
expansion of human satellite cells (in words) [9]: ability to expand human satellite cells at low doses

CCOc1cc(N2CCC(O)CC2)ccc1Nc1ncc2c(n1)N(C)c1ccccc1C(=O)N2C [XMD8-92]
optimal treatment concentration determined in dose response [5]: 3 µM

Alk5 inhibitor II
proliferation on addition of Alk5 inhibitor II to the cultures ([7]; Alk5 inhibitor II alone): slight increase in proliferation

COc1cc(C(=O)N2CCC(N3CCN(C)CC3)CC2)ccc1Nc1ncc2c(n1)N(C)c1ccccc1C(=O)N2C [XMD11-50]
optimal treatment concentration determined in dose response [5]: 0.8 µM

O=C(CCCCCCC(=O)Nc1ccccc1)NO [Vorinostat, suberoylanilide hydroxamic acid]
optimal treatment concentration determined in dose response [5]: 0.4 µM

CCCC1O[C@@H]2C[C@H]3[C@@H]4CCC5=CC(=O)C=C[C@]5(C)[C@H]4[C@@H](O)C[C@]3(C)[C@]2(C(=O)CO)O1 (stereo partly shown) [Budesonide]
additive or synergistic action with bFGF [1]: no additional increase | activity on in vitro satellite cell proliferation (in words) [3]: identified and validated; also recorded: proliferation levels much greater than that seen in the negative control
